# Reference: patent publication US8906899B2, “Azetidine derivatives as sphingosine 1-phosphate (S1P) receptor modulators” (Allergan, Inc., priority 2010, dated 2014)
# Target: T1, human S1P1 receptor (Homo sapiens, UniProt P21453)
# T1 construct: expressed in transfected cells; membranes used
# Test: GTP γ35S binding assay for S1P1 activity
# Type: biochemical
# Conditions: activity potency from GTP γ35S binding; membranes, test compounds 0.08 to 5,000 nM, 30 min at 25° C.
# Experimental: Compounds were synthesized and tested for S1P1 activity using the GTP γ^35S binding assay. These compounds may be assessed for their ability to activate or block activation of the human S1P1 receptor in cells stably expressing the S1P1 receptor.
# GTP γ^35S binding was measured in the medium containing (mM) HEPES 25, pH 7.4, MgCl2 10, NaCl 100, dithitothreitol 0.5, digitonin 0.003%, 0.2 nM GTP γ^35S, and 5 μg membrane protein in a volume of 150 μl. Test compounds were included in the concentration range from 0.08 to 5,000 nM unless indicated otherwise. Membranes were incubated with 100 μM 5′-adenylylimmidodiphosphate for 30 min, and subsequently with 10 μM GDP for 10 min on ice. Drug solutions and membrane were mixed, and then reactions were initiated by adding GTP γ^35S and continued for 30 min at 25° C. Reaction mixtures were filtered over Whatman GF/B filters under vacuum, and washed three times with 3 mL of ice-cold buffer (HEPES 25, pH7.4, MgCl2 10 and NaCl-100). Filters were dried and mixed with scintillant, and counted for ^35S activity using a β-counter. Agonist-induced GTP γ^35S binding was obtained by subtracting that in the absence of agonist. Binding data were analyzed using a non-linear regression method. In case of antagonist assay, the reaction mixture contained 10 nM S1P in the presence of test antagonist at concentrations ranging from 0.08 to 5000 nM.
# T1 sequence (P21453 whole entry): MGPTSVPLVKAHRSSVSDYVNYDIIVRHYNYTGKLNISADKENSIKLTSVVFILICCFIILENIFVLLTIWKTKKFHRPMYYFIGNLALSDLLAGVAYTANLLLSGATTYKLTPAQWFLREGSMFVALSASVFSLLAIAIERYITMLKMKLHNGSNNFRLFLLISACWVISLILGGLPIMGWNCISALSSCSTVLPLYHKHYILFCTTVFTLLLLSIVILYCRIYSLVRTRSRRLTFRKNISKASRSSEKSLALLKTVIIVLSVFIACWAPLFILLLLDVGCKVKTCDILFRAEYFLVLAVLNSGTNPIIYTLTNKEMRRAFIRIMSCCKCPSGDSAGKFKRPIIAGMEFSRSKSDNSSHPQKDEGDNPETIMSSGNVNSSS
row,EC50,Structure (SMILES)
1,1060 nM,"CCc1ccc(OC(c2cccc(Cl)c2)c2nc(-c3ccc(CN4CC(C(=O)O)C4)cc3)no2)cc1 (stereo not drawn) [Compound 1, 1-(4-{5-[(3-chlorophenyl)(4-ethylphenoxy)methyl]-1,2,4-oxadiazol-3-yl}benzyl)azetidine-3-carboxylic acid]"
2,598 nM,"Cc1ccc(OC(c2cccc(Cl)c2)c2nc(-c3ccc(CN4CC(C(=O)O)C4)cc3)no2)cc1C (stereo not drawn) [Compound 2, 1-(4-{5-[(3-chlorophenyl)(3,4-dimethylphenoxy)methyl]-1,2,4-oxadiazol-3-yl}benzyl)azetidine-3-carboxylic acid]"
3,1100 nM,"CCCc1ccc(OC(c2cccc(Cl)c2)c2nc(-c3ccc(CN4CC(C(=O)O)C4)cc3)no2)cc1 (stereo not drawn) [Compound 3, 1-(4-{5-[(3-chlorophenyl)(4-propylphenoxy)methyl]-1,2,4-oxadiazol-3-yl}benzyl)azetidine-3-carboxylic acid]"
4,911 nM,"Cc1ccc(OC(c2nc(-c3ccc(CN4CC(C(=O)O)C4)cc3)no2)c2ccccc2Cl)cc1C (stereo not drawn) [Compound 4, 1-(4-{5-[(2-chlorophenyl)(3,4-dimethylphenoxy)methyl]-1,2,4-oxadiazol-3-yl}benzyl)azetidine-3-carboxylic acid]"
5,312 nM,"Cc1ccc(NC(c2cccc(Cl)c2)c2nc(-c3ccc(CN4CC(C(=O)O)C4)cc3)no2)cc1C (stereo not drawn) [Compound 6, 1-[4-(5-{(3-chlorophenyl)[(3,4-dimethylphenyl)amino]methyl}-1,2,4-oxadiazol-3-yl)benzyl]azetidine-3-carboxylic acid]"
6,336 nM,"O=C(NCc1ccc2c(c1)OCO2)c1cc(-c2ccccc2)c(N2CCOCC2)s1 [N-(1,3-benzodioxol-5-ylmethyl)-5-morpholin-4-yl-4-phenylthiophene-2-carboxamide]"
